According to PubChem BioAssay (NCI):
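96-well plates; 48 h exposure; 5 concentrations. Endpoints by linear interpolation between flanking doses. Not reached: highest tested concentration assigned. At the TGI there is no net growth.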

Key:
Assay in all cases: growth of human tumour cells (NCI), 48 h
[1] = tested on: RPMI-8226 leukemia
[2] = tested on: HOP-62 NSCLC
[3] = tested on: SW-620 colon
[4] = tested on: SF-295 CNS
[5] = tested on: PC-3 prostate
[6] = tested on: HL-60(TB) leukemia
[7] = tested on: UACC-257 melanoma
[8] = tested on: UACC-62 melanoma
[9] = tested on: KM12 colon
[10] = tested on: BT-549 breast
[11] = tested on: SNB-19 CNS
[12] = tested on: NCI-H460 lung
[13] = tested on: U251 CNS
[14] = tested on: TK-10 renal
[15] = tested on: NCI-H522 lung
[16] = tested on: OVCAR-4 ovarian
[17] = tested on: CAKI-1 renal
[18] = tested on: MDA-N
[19] = tested on: SK-MEL-28 melanoma
[20] = tested on: K-562 leukemia
[21] = tested on: SK-OV-3 ovarian
[22] = tested on: OVCAR-3 ovarian
[23] = tested on: MALME-3M melanoma
[24] = tested on: MDA-MB-231 breast
[25] = tested on: HCT-116 colon
[26] = tested on: NCI-H23 lung
[27] = tested on: MOLT-4 leukemia
[28] = tested on: 786-0 renal
[29] = tested on: A498 renal
[30] = tested on: OVCAR-5 ovarian
[31] = tested on: SK-MEL-2 melanoma
[32] = tested on: HCC-2998 colon
[33] = tested on: SNB-75 CNS
[34] = tested on: MDA-MB-435
[35] = tested on: A549 NSCLC
[36] = tested on: SK-MEL-5 melanoma
[37] = tested on: T-47D breast
[38] = tested on: HT29 colon
[39] = tested on: UO-31 renal
[40] = tested on: HCT-15 colon
[41] = tested on: DU-145 prostate
[42] = tested on: CCRF-CEM leukemia
[43] = tested on: COLO 205 colon
[44] = tested on: NCI/ADR-RES ovarian
[45] = tested on: OVCAR-8 ovarian
[46] = tested on: SN12C renal
[47] = tested on: HOP-92 NSCLC
[48] = tested on: LOX IMVI melanoma
[49] = tested on: EKVX NSCLC
[50] = tested on: M14 melanoma
[51] = tested on: HS 578T breast
[52] = tested on: SF-539 CNS
[53] = tested on: SR leukemia
[54] = tested on: RXF 393 renal
[55] = tested on: ACHN renal
[56] = tested on: NCI-H226 lung
[57] = tested on: MCF7 breast
[58] = tested on: IGROV1 ovarian

CN(CCCNC(=O)c1nn(-c2ccc(Cl)cc2Cl)c2c1Cc1ccccc1-2)CCCNC(=O)c1nn(-c2ccc(Cl)cc2Cl)c2c1Cc1ccccc1-2
TGI [1]: 3 µM | TGI [2]: 3.09 µM | TGI [3]: 3.06 µM | TGI [4]: 3.15 µM | TGI [5]: 3.11 µM | TGI [6]: 3.14 µM | TGI [7]: 3.35 µM | TGI [8]: 2.92 µM | TGI [9]: 4.01 µM | TGI [10]: 3.18 µM | TGI [11]: 3.24 µM | TGI [12]: 3.19 µM | TGI [13]: 3.1 µM | TGI [14]: 3.14 µM | TGI [15]: 2.9 µM | TGI [16]: 2.58 µM | TGI [17]: 2.95 µM | TGI [18]: 3.17 µM | TGI [19]: 3.3 µM | TGI [20]: 2.97 µM | TGI [21]: 3.06 µM | TGI [22]: 3.09 µM | TGI [23]: 3.35 µM | TGI [24]: 3.18 µM | TGI [25]: 3.15 µM | TGI [26]: 3.48 µM | TGI [27]: 3.98 µM | TGI [28]: 3.21 µM | TGI [29]: 3.13 µM | TGI [30]: 2.98 µM | TGI [31]: 3.2 µM | TGI [32]: 3 µM | TGI [33]: 2.92 µM | TGI [34]: 2.57 µM | TGI [35]: 3.64 µM | TGI [36]: 3.05 µM | TGI [37]: 3.76 µM | TGI [38]: 3.42 µM | TGI [39]: 3.59 µM | TGI [40]: 3.38 µM | TGI [41]: 3.18 µM | TGI [42]: 2.97 µM | TGI [43]: 3.26 µM | TGI [44]: 3.55 µM | TGI [45]: 3.46 µM | TGI [46]: 3.04 µM | TGI [47]: 3.06 µM | TGI [48]: 3.26 µM | TGI [49]: 3.26 µM | TGI [50]: 3.47 µM

CCOC(=O)[C@H](Cc1ccc(O)cc1)N=C1[C@H]2CCC[C@]1(O)[C@@](C)([N+](=O)[O-])C2
TGI [1]: > 100 µM | TGI [51]: > 100 µM | TGI [3]: > 100 µM | TGI [4]: > 100 µM | TGI [52]: > 100 µM | TGI [6]: > 100 µM | TGI [7]: > 100 µM | TGI [8]: > 100 µM | TGI [9]: > 100 µM | TGI [53]: > 100 µM | TGI [10]: > 100 µM | TGI [11]: > 100 µM | TGI [12]: > 100 µM | TGI [13]: > 100 µM | TGI [54]: > 100 µM | TGI [14]: > 100 µM | TGI [15]: > 100 µM | TGI [16]: > 100 µM | TGI [17]: > 100 µM | TGI [18]: > 100 µM | TGI [19]: > 100 µM | TGI [20]: > 100 µM | TGI [21]: > 100 µM | TGI [22]: > 100 µM | TGI [23]: > 100 µM | TGI [25]: > 100 µM | TGI [26]: > 100 µM | TGI [55]: > 100 µM | TGI [27]: > 100 µM | TGI [28]: > 100 µM | TGI [29]: > 100 µM | TGI [30]: > 100 µM | TGI [32]: > 100 µM | TGI [56]: > 100 µM | TGI [34]: > 100 µM | TGI [35]: > 100 µM | TGI [36]: > 100 µM | TGI [57]: > 100 µM | TGI [38]: > 100 µM | TGI [39]: > 100 µM | TGI [40]: > 100 µM | TGI [41]: > 100 µM | TGI [42]: > 100 µM | TGI [43]: > 100 µM | TGI [44]: > 100 µM | TGI [45]: > 100 µM | TGI [58]: > 100 µM | TGI [46]: > 100 µM | TGI [47]: > 100 µM | TGI [48]: > 100 µM | TGI [49]: > 100 µM | TGI [50]: > 100 µM
